According to patent publication US20040116336A1, “Peptide derivatives” (priority 2002, published 2004):
Non-standard residues stand in square brackets, D forms with d. Residues, ends and D or L forms follow the SMILES beside them. Phe(4-Cl) = N[C@@H](Cc1ccc(Cl)cc1)C(=O)O; Cha = N[C@@H](CC1CCCCC1)C(=O)O

Experiments:
APJ [1] = molecular target: T1, APJ (Homo sapiens, UniProt P35414); experiment: Inhibitory activity on forskolin-stimulated cAMP production in CHO-A10 clone 6 cells; format: cell-based; conditions: read-out: EC50
T1 construct: expressed in transfected cells; host or cells: CHO (CHO-A10; clone 6 for the cAMP assay)
T1 sequence (P35414 1-380): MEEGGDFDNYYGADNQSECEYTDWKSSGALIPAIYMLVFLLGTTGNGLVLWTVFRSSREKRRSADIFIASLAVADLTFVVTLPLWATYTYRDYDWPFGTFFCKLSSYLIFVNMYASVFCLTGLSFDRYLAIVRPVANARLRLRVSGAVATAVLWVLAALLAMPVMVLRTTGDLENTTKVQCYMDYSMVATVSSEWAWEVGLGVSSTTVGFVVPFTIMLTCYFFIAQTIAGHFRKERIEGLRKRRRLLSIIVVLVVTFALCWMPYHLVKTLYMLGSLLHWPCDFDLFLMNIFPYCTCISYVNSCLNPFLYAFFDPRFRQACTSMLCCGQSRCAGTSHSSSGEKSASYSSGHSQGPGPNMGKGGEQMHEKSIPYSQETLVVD

APJ [2] = molecular target: T1, APJ; experiment: Receptor binding assay-1 (125I-labeled compound in Reference Example 1, CHO-A10 membrane fraction); conditions: 125I-labeled compound in Reference Example 1 at 100 pM, room temperature […]
Description: This product was mixed with an equal volume of an assay buffer (50 mM Tris-HCl/pH 7.5, 5 mM EDTA, 0.5 mM PMSF, 20 μg/ml leupeptin, 0.1 μg/ml pepstatin A, 4 μg/ml E-64 (Peptide Research Laboratory, Co.), 0.1% bovine serum albumin) and stored at −30° C. before use.
CHO-A10 cells were cultured, recovered with PBS containing 5 mM EDTA from a culture vessel, and suspended in the above-mentioned assay buffer not containing bovine serum albumin. The cells were homogenized 3 times at 12,000 rpm for 15 seconds by a Polytron homogenizer (manufactured by Kinematica Inc.) and then centrifuged (1000×g, 4° C., 10 minutes), and the supernatant was recovered. The precipitates were subjected again to the same procedure as above, and the respective supernatants were combined and centrifuged at 100,000×g, 4° C. for 1 hour, to recover precipitates (membrane fraction). The membrane fraction was suspended again in a small amount of the buffer, homogenized with a Teflon homogenizer and stored at −80° C. before use.
Binding assay was carried out under the following conditions. […] Measurement of non-specific binding was carried out using a well containing 1 μM unlabeled compound in place of the test sample. After the incubation was finished, a cell harvester (Packard) adapted to 96 wells and a filter unit (GF/C, Packard) were used for separation thereby capturing the membrane fraction on the filter. After the filter was sufficiently dried, Microcinti 0 (Packard) was added thereto, and using Top Count (Packard), the amount of the labeled material captured together with the membrane fraction on the filter was measured.

APJ [3] = molecular target: T1, APJ; experiment: Receptor binding assay-2 (compound in Reference Example 2 used); conditions: compound in Reference Example 2 used as ligand; read-out: IC50

CSCC[C@H](NC(=O)[C@@H]1CCCN1C(=O)CNC(=O)[C@H](CCCCN)NC(=O)[C@H](Cc1c[nH]cn1)NC(=O)[C@H](CO)NC(=O)[C@H](CC(C)C)NC(=O)[C@H](CCCNC(=N)N)NC(=O)[C@@H]1CCCN1C(=O)[C@H](CCCNC(=N)N)NC(=O)[C@H](CCCCNC(=O)[C@H](CCCNC(=N)N)NC(=O)[C@@H](N)CCCNC(=N)N)NC(=O)[C@H](CCCNC(=N)N)NC(=O)[C@@H](N)CCCNC(=N)N)C(=O)N1CCC[C@H]1C(=O)N[C@@H](Cc1ccccc1)C(=O)O [Compound in Ex. 21]
EC50 (APJ [1]): 0.57 nM
IC50 (APJ [2]): 2.9 nM
IC50 (APJ [3]): 0.84 nM

CSCC[C@H](NC(=O)[C@@H]1CCCN1C(=O)CNC(=O)[C@H](CCCCN)NC(=O)[C@H](Cc1c[nH]cn1)NC(=O)[C@H](CO)NC(=O)[C@H](CC(C)C)NC(=O)[C@H](CCCNC(=N)N)NC(=O)[C@@H]1CCCN1C(=O)[C@H](CCCNC(=N)N)NC(=O)[C@H](CCCCN)NC(=O)[C@H](CCCNC(=N)N)NC(=O)[C@@H](N)CCCNC(=N)N)C(=O)N1CCC[C@H]1C(=O)N[C@@H](Cc1ccccc1)C(=O)O [Compound in Ex. 23]
EC50 (APJ [1]): 0.31 nM
IC50 (APJ [2]): 9.2 nM
IC50 (APJ [3]): 0.09 nM

CSCC[C@H](NC(=O)[C@@H]1CCCN1C(=O)CNC(=O)[C@H](CCCCN)NC(=O)[C@H](Cc1c[nH]cn1)NC(=O)[C@H](CO)NC(=O)[C@H](CC(C)C)NC(=O)[C@H](CCCNC(=N)N)NC(=O)[C@@H]1CCCN1C(=O)[C@H](CCCNC(=N)N)NC(=O)[C@H](C)NC(=O)[C@H](CCCNC(=N)N)NC(=O)[C@@H](N)CCCNC(=N)N)C(=O)N1CCC[C@H]1C(=O)N[C@@H](Cc1ccccc1)C(=O)O [Compound in Ex. 25]
EC50 (APJ [1]): 0.25 nM
IC50 (APJ [2]): 34 nM
IC50 (APJ [3]): 0.067 nM

CC(C)C[C@H](NC(=O)[C@H](CCCNC(=N)N)NC(=O)[C@@H]1CCCN1C(=O)[C@@H](N)CCCNC(=N)N)C(=O)N[C@@H](CO)C(=O)N[C@@H](C)C(=O)N[C@@H](CCCNC(=N)N)C(=O)NCC(=O)N1CCC[C@H]1C(=O)N[C@@H](CC1CCCCC1)C(=O)N[C@@H](Cc1ccc(Cl)cc1)C(=O)O [Compound in Ex. 4] (H-RPRLSARGP[Cha][Phe(4-Cl)]-OH; N-terminus and C-terminus assumed)
EC50 (APJ [1]): 0.65 nM
IC50 (APJ [2]): 1 nM
IC50 (APJ [3]): 0.1 nM

CCCC[C@H](NC(=O)[C@@H]1CCCN1C(=O)CNC(=O)[C@H](CCCCN)NC(=O)[C@H](Cc1c[nH]cn1)NC(=O)[C@H](CO)NC(=O)[C@H](CC(C)C)NC(=O)[C@H](CCCNC(=N)N)NC(=O)[C@@H]1CCCN1C(=O)[C@H](CCCNC(=N)N)NC(=O)[C@H](CCC(N)=O)NC(=O)[C@H](CCCNC(=N)N)NC(=O)[C@@H](N)CCCNC(=N)N)C(=O)N1CCC[C@H]1C(=O)N[C@@H](Cc1ccc(O)cc1)C(=O)O [Compound in Ex. 14]
EC50 (APJ [1]): 0.28 nM
IC50 (APJ [2]): 2.7 nM
IC50 (APJ [3]): 0.027 nM

CC(C)C[C@H](NC(=O)[C@H](CCCNC(=N)N)NC(=O)[C@@H]1CCCN1C(=O)[C@@H](N)CCCNC(=N)N)C(=O)N[C@@H](CO)C(=O)N[C@@H](Cc1c[nH]cn1)C(=O)N[C@@H](CCCCN)C(=O)NCC(=O)N1CCC[C@H]1C(=O)N[C@@H](CC1CCCCC1)C(=O)N1CCC[C@H]1C(=O)N[C@@H](Cc1ccc(Cl)cc1)C(=O)O [Compound in Ex. 7]
EC50 (APJ [1]): 0.41 nM
IC50 (APJ [2]): 1.4 nM
IC50 (APJ [3]): 0.12 nM

CC(C)C[C@H](NC(=O)[C@H](CCCNC(=N)N)NC(=O)[C@@H]1CCCN1C(=O)[C@@H](N)CCCNC(=N)N)C(=O)N[C@@H](Cc1ccccc1)C(=O)N[C@@H](C)C(=O)N[C@@H](CCCNC(=N)N)C(=O)NCC(=O)N1CCC[C@H]1C(=O)N[C@@H](CC1CCCCC1)C(=O)N1CCC[C@H]1C(=O)N[C@@H](Cc1ccc(Cl)cc1)C(=O)O [Compound in Ex. 12] (H-RPRLFARGP[Cha]P[Phe(4-Cl)]-OH)
EC50 (APJ [1]): 1.2 nM
IC50 (APJ [2]): 2.3 nM
IC50 (APJ [3]): 0.38 nM
